Measured values reported in patent US20220119354A1, “DIAMINO-SUBSTITUTED PYRIDINES AND PYRIMIDINES AS HERBICIDES” (FMC Corporation, priority 2019, published 2022).

Tests used:
Assay type in all cases: in vivo
[1] = test system: foxtail, giant (Setaria faberii); test: Test A postemergence, giant foxtail; details: 0 to 100 scale, 0 no effect, 100 complete control
In short: (§1)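 Visual injury scores (0 no effect to 100 complete control) were assigned about 10 d after treatment by comparison with untreated controls. Test chemicals, formulated in a surfactant-containing non-phytotoxic solvent, were applied to soil at planting or to plants at the one- to two-leaf stage.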

[2] = test system: barnyardgrass (Echinochloa crus-galli); test: Test A preemergence, barnyardgrass; details: 0 to 100 scale, 0 is no effect, 100 is complete control
In short: as §1

[3] = test system: blackgrass (Alopecurus myosuroides); test: Test A postemergence, blackgrass; details: 0 to 100 scale, 0 no effect, 100 complete control
In short: as §1

[4] = test system: kochia (Kochia scoparia); test: Test A preemergence, kochia; details: 0 to 100 scale, 0 is no effect, 100 is complete control
In short: as §1

[5] = test system: rice (Oryza sativa); test: Test B flooded paddy test, rice; details: Flood, 250 g ai/ha, applied to paddy water, 2-leaf stage, visual evaluation after 13 to 15 d
In short: (§2)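 Plants grown to 2-leaf stage. Compounds applied directly into paddy water flooded 3 cm above soil, with that depth kept throughout. After 13–15 d in greenhouse, visual rating versus controls on a 0–100 scale (0 no effect, 100 complete control).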

[6] = test system: ducksalad (Heteranthera limosa); test: Test B flooded paddy test, ducksalad; details: Flood, 250 g ai/ha, applied to paddy water, 2-leaf stage, visual evaluation after 13 to 15 d
In short: as §2

[7] = test system: ragweed (common ragweed, Ambrosia elatior); test: Test A preemergence, ragweed; details: 0 to 100 scale, 0 is no effect, 100 is complete control
In short: as §1

[8] = test system: kochia (Kochia scoparia); test: Test A postemergence, kochia; details: 0 to 100 scale, 0 no effect, 100 complete control
In short: as §1

[9] = test system: barnyardgrass (Echinochloa crus-galli); test: Test B flooded paddy test, barnyardgrass; details: Flood, 250 g ai/ha, applied to paddy water, 2-leaf stage, visual evaluation after 13 to 15 d
In short: as §2

[10] = test system: ryegrass, Italian (Lolium multiflorum); test: Test A postemergence, Italian ryegrass; details: 0 to 100 scale, 0 no effect, 100 complete control
In short: as §1

[11] = test system: wheat (Triticum aestivum); test: Test A postemergence, wheat; details: 0 to 100 scale, 0 no effect, 100 complete control
In short: as §1

[12] = test system: sedge, umbrella (small-flower umbrella sedge, Cyperus difformis); test: Test B flooded paddy test, umbrella sedge; details: Flood, 250 g ai/ha, applied to paddy water, 2-leaf stage, visual evaluation after 13 to 15 d
In short: as §2

[13] = test system: foxtail, giant (Setaria faberii); test: Test A preemergence, giant foxtail; details: 0 to 100 scale, 0 is no effect, 100 is complete control
In short: as §1

[14] = test system: corn (Zea mays); test: Test A postemergence, corn; details: 0 to 100 scale, 0 no effect, 100 complete control
In short: as §1

[15] = test system: ragweed (common ragweed, Ambrosia elatior); test: Test A postemergence, ragweed; details: 0 to 100 scale, 0 no effect, 100 complete control
In short: as §1

[16] = test system: barnyardgrass (Echinochloa crus-galli); test: Test A postemergence, barnyardgrass; details: 0 to 100 scale, 0 no effect, 100 complete control
In short: as §1

[17] = test system: pigweed (Amaranthus retroflexus); test: Test A postemergence, pigweed; details: 0 to 100 scale, 0 no effect, 100 complete control
In short: as §1

[18] = test system: pigweed (Amaranthus retroflexus); test: Test A preemergence, pigweed; details: 0 to 100 scale, 0 is no effect, 100 is complete control
In short: as §1

[19] = test system: galium (catchweed bedstraw, Galium aparine); test: Test A postemergence, galium; details: 0 to 100 scale, 0 no effect, 100 complete control
In short: as §1

[20] = test system: ryegrass, Italian (Lolium multiflorum); test: Test A preemergence, Italian ryegrass; details: 0 to 100 scale, 0 is no effect, 100 is complete control
In short: as §1

Compound	Plant response rating, Foxtail, Giant ([1]; 125 g ai/ha)	Plant response rating, Foxtail, Giant ([1]; 500 g ai/ha)	Barnyardgrass plant response rating ([2]; 125 g ai/ha)	Barnyardgrass plant response rating ([2]; 500 g ai/ha)	Plant response rating, Blackgrass ([3]; 125 g ai/ha)	Plant response rating, Blackgrass ([3]; 500 g ai/ha)	Kochia plant response rating ([4]; 125 g ai/ha)	Kochia plant response rating ([4]; 500 g ai/ha)	Plant response rating, Rice (0 to 100 scale, 0 is no effect, 100 is complete control) [5]	Plant response rating, Ducksalad (0 to 100 scale, 0 is no effect, 100 is complete control) [6]	Ragweed plant response rating ([7]; 125 g ai/ha)	Ragweed plant response rating ([7]; 500 g ai/ha)	Plant response rating, Kochia ([8]; 125 g ai/ha)	Plant response rating, Kochia ([8]; 500 g ai/ha)	Plant response rating, Barnyardgrass (0 to 100 scale, 0 is no effect, 100 is complete control) [9]	Plant response rating, Ryegrass, Italian ([10]; 125 g ai/ha)	Plant response rating, Ryegrass, Italian ([10]; 500 g ai/ha)	Plant response rating, Wheat ([11]; 125 g ai/ha)	Plant response rating, Wheat ([11]; 500 g ai/ha)	Plant response rating, Sedge, Umbrella (0 to 100 scale, 0 is no effect, 100 is complete control) [12]	other results
CC[C@H](Nc1ncc(C(F)(F)F)c(N)n1)c1cc2ccc(F)cc2o1 [Compound 64]	0	0	0	0	0	0	0	0	0	0	0	0	0	30	0	0	0	0	0	0	Foxtail, Giant plant response rating ([13]; 125 g ai/ha): 0; Foxtail, Giant plant response rating ([13]; 500 g ai/ha): 0; Plant response rating, Corn ([14]; 125 g ai/ha): 0; Plant response rating, Corn ([14]; 500 g ai/ha): 0; Plant response rating, Ragweed ([15]; 125 g ai/ha): 0; Plant response rating, Ragweed ([15]; 500 g ai/ha): 20; Plant response rating, Barnyardgrass ([16]; 125 g ai/ha): 0; Plant response rating, Barnyardgrass ([16]; 500 g ai/ha): 20; Plant response rating, Pigweed ([17]; 125 g ai/ha): 20; Plant response rating, Pigweed ([17]; 500 g ai/ha): 60; Pigweed plant response rating ([18]; 125 g ai/ha): 0; Pigweed plant response rating ([18]; 500 g ai/ha): 0; Plant response rating, Galium ([19]; 125 g ai/ha): 0; Plant response rating, Galium ([19]; 500 g ai/ha): 30; Ryegrass, Italian plant response rating ([20]; 125 g ai/ha): 0; Ryegrass, Italian plant response rating ([20]; 500 g ai/ha): 0
C[C@@H](Nc1nc(N)c(C(F)(F)F)c(C(F)(F)F)n1)c1cc2ccccc2o1 [Compound 65]	0	0	0	0	0	0	0	0	0	0	0	40	0	60	0	0	0	30	30	0	Foxtail, Giant plant response rating ([13]; 125 g ai/ha): 0; Foxtail, Giant plant response rating ([13]; 500 g ai/ha): 0; Plant response rating, Corn ([14]; 125 g ai/ha): 0; Plant response rating, Corn ([14]; 500 g ai/ha): 0; Plant response rating, Ragweed ([15]; 125 g ai/ha): 0; Plant response rating, Ragweed ([15]; 500 g ai/ha): 0; Plant response rating, Barnyardgrass ([16]; 125 g ai/ha): 0; Plant response rating, Barnyardgrass ([16]; 500 g ai/ha): 0; Plant response rating, Pigweed ([17]; 125 g ai/ha): 0; Plant response rating, Pigweed ([17]; 500 g ai/ha): 30; Pigweed plant response rating ([18]; 125 g ai/ha): 0; Pigweed plant response rating ([18]; 500 g ai/ha): 0; Plant response rating, Galium ([19]; 125 g ai/ha): 0; Plant response rating, Galium ([19]; 500 g ai/ha): 0; Ryegrass, Italian plant response rating ([20]; 125 g ai/ha): 0; Ryegrass, Italian plant response rating ([20]; 500 g ai/ha): 0
C[C@H](Nc1nc(N)c(C(F)(F)F)c(C(F)(F)F)n1)c1cc2ccccc2o1 [Compound 66]	0	0	0	0	0	30	0	0	0	0	0	0	20	90	0	0	0	0	0	0	Foxtail, Giant plant response rating ([13]; 125 g ai/ha): 0; Foxtail, Giant plant response rating ([13]; 500 g ai/ha): 0; Plant response rating, Corn ([14]; 125 g ai/ha): 0; Plant response rating, Corn ([14]; 500 g ai/ha): 20; Plant response rating, Ragweed ([15]; 125 g ai/ha): 0; Plant response rating, Ragweed ([15]; 500 g ai/ha): 20; Plant response rating, Barnyardgrass ([16]; 125 g ai/ha): 0; Plant response rating, Barnyardgrass ([16]; 500 g ai/ha): 30; Plant response rating, Pigweed ([17]; 125 g ai/ha): 30; Plant response rating, Pigweed ([17]; 500 g ai/ha): 100; Pigweed plant response rating ([18]; 125 g ai/ha): 0; Pigweed plant response rating ([18]; 500 g ai/ha): 0; Plant response rating, Galium ([19]; 125 g ai/ha): 30; Plant response rating, Galium ([19]; 500 g ai/ha): 40; Ryegrass, Italian plant response rating ([20]; 125 g ai/ha): 0; Ryegrass, Italian plant response rating ([20]; 500 g ai/ha): 0
C[C@@H](Nc1nc(N)c(C(F)(F)F)c(C(F)(F)F)n1)C1Cc2ccccc2C1 [Compound 67]	0	0	0	0	0	0	0	90	0	0	0	0	50	70	0	0	0	0	0	0	Foxtail, Giant plant response rating ([13]; 125 g ai/ha): 0; Foxtail, Giant plant response rating ([13]; 500 g ai/ha): 0; Plant response rating, Corn ([14]; 125 g ai/ha): 0; Plant response rating, Corn ([14]; 500 g ai/ha): 0; Plant response rating, Ragweed ([15]; 125 g ai/ha): 0; Plant response rating, Ragweed ([15]; 500 g ai/ha): 0; Plant response rating, Barnyardgrass ([16]; 125 g ai/ha): 0; Plant response rating, Barnyardgrass ([16]; 500 g ai/ha): 0; Plant response rating, Pigweed ([17]; 125 g ai/ha): 20; Plant response rating, Pigweed ([17]; 500 g ai/ha): 60; Pigweed plant response rating ([18]; 125 g ai/ha): 30; Pigweed plant response rating ([18]; 500 g ai/ha): 90; Plant response rating, Galium ([19]; 125 g ai/ha): 20; Plant response rating, Galium ([19]; 500 g ai/ha): 40; Ryegrass, Italian plant response rating ([20]; 125 g ai/ha): 0; Ryegrass, Italian plant response rating ([20]; 500 g ai/ha): 0
